According to patent US11931335B2, “Enhancing autophagy or increasing longevity by administration of urolithins or precursors thereof” (Amazentis SA, priority 2012, dated 2024):
Entries after “also recorded” stand apart in the source; their conditions may differ. Like-named read-outs stand apart in the source and are kept apart here.

Key:
[1] = tested on: aak-2(ok524) mutant C. elegans; type: in vivo; conditions: aak-2 (o524); for Lifespan extension compared to control (%): 50 μM UA vs 1% DMSO
Experimental: (§1) Lifespan assays were performed with (A) wild-type (N2), (B) sir-2.1(ok434) mutant, (C) aak-2(ok524), (D) daf-16(mu86), (E) eat-2(ad465) and (F) daf-2(e1370) mutant strains of C. elegans maintained during their full life on plates supplemented with either 50 μM of urolithin A or with a control treatment and seeded with OP50 bacteria. Control plates without urolithin A contained an equivalent concentration of DMSO. Worm lifespan assays were performed at 20° C.
aak-2/AMPK: aak-2 encodes the mammalian homolog of the AMP-dependent kinase AMPK in C. elegans.

[2] = tested on: Human Aortic Endothelial Cells (HAOEC); assay: Autophagy western blot in human aortic endothelial cells; type: cell-based; conditions: 16 hours
Experimental: Human Aortic Endothelial Cells (HAOEC) are primary endothelial cells isolated from normal human aorta. They were sourced from Cell Applications Inc. (CAI), San Diego, USA and obtained cryopreserved at the second passage from the European Collection of Cell Cultures (ECACC). The cells were thawed and cultured with Endothelial Cell Growth Medium, provided by the ECACC, catalog number 06091509 (CAI No. 211-500), in a 37° C., 5% CO2 humidified incubator; media was changed 24 hours after thawing. Endothelial Cell Growth Medium was changed every other day until the cells reached 80% confluency. Cells were then subcultured into four 6-well dishes and after overnight incubation were treated with different concentrations of urolithin A, 10 μM, 20 μM, and 50 μM, or a DMSO control for a period of 16 hours, 3 wells per treatment. Control cells were treated with DMSO at an equivalent final concentration for the same period and served as the untreated control.
At the end of treatment, cells were lysed with RIPA buffer and applied to SDS-PAGE and analyzed by western blot. Protein expression levels were examined for autophagy-related proteins LC3-I and LC3-II (Cell Signaling antibody #4108), and p62 (Cell Signaling antibody #5114). The housekeeping protein, HSP90 (BD Transduction Laboratories antibody #610418) level was measured as a loading control.

[3] = tested on: eat-2(ad465) mutant C. elegans; assay: Lifespan assay, eat-2 mutant C. elegans; type: in vivo
Experimental: as §1
eat-2 encodes a protein involved in pharyngeal pumping.

[4] = tested on: C. elegans wild-type Bristol N2; assay: Oxygen consumption (Seahorse XF24) in aged C. elegans; type: in vivo
Experimental: C. elegans strains were cultured at 20° C. on nematode growth media (NGM) agar plates seeded with E. coli strain OP50. Strain used was wild-type Bristol N2 provided by the Caenorhabditis Genetics Center (University of Minnesota). Urolithin A was dissolved in DMSO. Animals were exposed to compounds from eggs on plates seeded with live OP50 bacteria. Control plates were prepared with the corresponding concentration of DMSO (0.1%).
The effect of urolithin A on mitochondrial activity in aged C. elegans (10 days old) was assessed by treating C. elegans with urolithin A for 10 days of adulthood, at which time oxygen consumption was measured using the Seahorse XF24 equipment (Seahorse Bioscience Inc., North Billerica, MA). […] Worms were transferred into 24-well standard Seahorse plates (#100777-004) (50 worms per well) and oxygen consumption was measured. The basal oxygen consumption of the worms was first measured over 30 minutes at 5-minute intervals (0 min, 5 min, 15 min, 20 min, 25 min, and 30 min) with 5 replicates per interval. Respiration rates were normalized to the exact number of worms per well determined after the completion of the experiment using a stereomicroscope. […] Uncoupled oxygen consumption was measured at 5-minute intervals (35 min, 40 min, 45 min, 50 min, 55 min, and 60 min) to permit measuring the mitochondrial function over time.

[5] = tested on: C. elegans wild-type Bristol N2; assay: Lifespan of wild-type C. elegans; type: in vivo; conditions: for Mean Life Extension (%): Genotype: N2, fed live E. coli (OP50); for median lifespan increased by: FIG. 5; for Lifespan extension compared to control (%): 50 μM UA vs 1% DMSO
Experimental: C. elegans strains were cultured at 20° C. on nematode growth media (NGM) agar plates seeded with E. coli strain OP50. Strain used was wild-type Bristol N2 provided by the Caenorhabditis Genetics Center (University of Minnesota). All Compounds were dissolved in DMSO. Animals were exposed to compounds from eggs on plates seeded with live OP50 bacteria. Control plates were prepared with the corresponding concentrations of DMSO (0.1%). For lifespan tests, worms were observed using a Nikon SMZ1500 stereomicroscope (Nikon, Melville, NY, USA). […] After 3 days (corresponding to day 0), newly developed 60 to 100 L4 worms were used per condition, scored and transferred to fresh plates every 3 days starting from day 1 (young adult worms). All lifespan experiments were performed at 20° C.
as §1

[6] = tested on: C. elegans fed bec-1 RNAi; assay: Lifespan with RNAi against bec-1; type: in vivo; conditions: 50 μM; vs empty vector; FIG. 10C
Experimental: Lifespan tests were performed as described. Mouchiroud L et al. (2011) Aging Cell 10:39-54. Briefly, worms were observed using a Nikon SMZ1500 stereomicroscope (Nikon, Melville, NY, USA). Briefly, 10 L4 worms were transferred on plates containing NGM medium with vehicle (DMSO 0.1%, final concentration) or urolithin A dissolved in DMSO (final concentration 50 μM) and seeded with E. coli RNAi clones as indicated. After 3 days (corresponding to day 0), newly developed 60-100 L4 worms were used per condition, scored and transferred to fresh plates every 3 days starting from day 1 (young adult worms). All lifespan experiments were performed at 20° C.
Survival analyses were performed using the Kaplan Meier method and the significance of differences between survival curves calculated using the log rank test. Differences between two groups were assessed using two-tailed t-tests. Analysis of variance, assessed by Bonferroni's multiple comparison test, was used when comparing more than two groups. The statistical software used was GraphPad Prism 5 (GraphPad Software, Inc.) and all p-values <0.05 were considered significant.
Gene silencing was carried out as previously described by using the RNA interference (RNAi) process. Mouchiroud L et al. (2011) Aging Cell 10:39-54. In C. elegans, RNAi is made by feeding. […]

[7] = tested on: daf-16(mu86) mutant C. elegans; assay: Lifespan assay, daf-16 mutant C. elegans; type: in vivo
Experimental: as §1
daf-16 encodes a FOXO transcription factor.

Question: `O=c1oc2cc(O)ccc2c2ccc(O)cc12` [Urolithin A, urolithin A] was tested. Which “Median lifespan” value ([1]; 50 μM UA) did it give?
Answer: 18 days

Question: And the “Lifespan extension compared to control (%)” value (from here on “Lifespan extension … (%)”) [1]?
Answer: 12.5%

Question: And the “Lifespan extension … (%)” value ([1]; listed as UA)?
Answer: +12.5%

Question: And the “levels of p62” value ([2]; 10 μM, 20 μM, and 50 μM)?
Answer: decrease

Question: What about the “ratio of LC3-II to LC3-I, induction” value ([2]; 50 μM of urolithin A, FIG. 18) of the same compound?
Answer: ≤ 3 fold

Question: And the “Median lifespan” value ([3]; 50 μM UA)?
Answer: 37 days

Question: And the “Lifespan extension … (%)” value ([3]; 50 μM UA vs 1% DMSO)?
Answer: +76.2%

Question: What about the “basal respiration, 10-day-old vs 1-day-old worms” value ([4]; 30 μM, FIG. 8D) of the same compound?
Answer: normalizes the respiration rates

Question: What about the “uncoupled (FCCP) respiration, area under the curve” value ([4]; 10-day-old worms, 30 μM urolithin A, 30-minute period, FIGS. 8A-8B) of the same compound?
Answer: significantly increased uncoupled respiration

Question: What about the “Mean Life Extension (%)” value ([5]; dose 10 μM) of the same compound?
Answer: 27.7%

Question: What about the “Mean Life Extension (%)” value ([5]; dose 50 μM) of the same compound?
Answer: 75%

Question: What about the “median lifespan increased by” value ([5]; concentration of 50 µM) of the same compound?
Answer: 75%

Question: And the “effect on lifespan in C. elegans” value ([5]; concentration of 50 µM, exposed from eggs, FIG. 4)?
Answer: extended the lifespan

Question: And the “median lifespan increased by” value ([5]; concentration of 10 M)?
Answer: 27.7%

Question: And the “Median lifespan” value ([5]; wild-type (N2), 50 μM UA)?
Answer: 28 days

Question: What about the “Lifespan extension … (%)” value ([5]; wild-type (N2)) of the same compound?
Answer: 75%

Question: And the “Lifespan extension … (%)” value ([5]; wild-type (N2), listed as UA)?
Answer: +75%

Question: What about the “lifespan extension by urolithin A under bec-1 RNAi” value [6] of the same compound?
Answer: suppressed; also recorded: totally suppress the lifespan phenotype

Question: What about the “Median lifespan” value ([7]; 50 μM UA) of the same compound?
Answer: 23 days

Question: And the “Lifespan extension … (%)” value ([7]; 50 μM UA vs 1% DMSO)?
Answer: +43.7%
